From PubChem BioAssay AID1963984 (Molecular Pharmacology Branch, DTP, NCI, 2024)

System: 233499-124-R-J3-PDC spheroids with HUVEC/MSC, viability
Assay: Anticancer human tumor 233499-124-R-J3-PDC patient-derived colon adenocarcinoma cell line growth inhibition [PI3K]
Conditions: for IC50: curve of first compound; for viability, T/C: stronger effect = lower value; active = viability on the fitted dose curve at most 10% of control; inactive = the rest
Outline: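 Stroma-containing spheroids: tumor line, pooled-donor HUVEC, hMSC. Treatments: targeted agents with PI3K inhibitors. Dosing: clinically relevant, half-log spacing, 10 microM ceiling without known Cmax. Read-out: cell viability.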

[1] = second compound 0.0316 µM, first compound 0.0316 µM
[2] = second compound 0.0316 µM, first compound 0.1 µM
[3] = second compound 0.1 µM, first compound 0.0316 µM
[4] = second compound 0.1 µM, first compound 0.1 µM
[5] = second compound 0.316 µM, first compound 0.0316 µM
[6] = second compound 0.316 µM, first compound 0.1 µM
[7] = second compound 1 µM, first compound 0.0316 µM
[8] = second compound 1 µM, first compound 0.1 µM
[9] = second compound 3.16 µM, first compound 0.0316 µM
[10] = second compound 3.16 µM, first compound 0.1 µM
[11] = second compound 10 µM, first compound 0.0316 µM
[12] = second compound 10 µM, first compound 0.1 µM
[13] = second compound 0.0316 µM, first compound 0.316 µM
[14] = second compound 0.0316 µM, first compound 1 µM
[15] = second compound 0.0316 µM, first compound 3.16 µM
[16] = second compound 0.0316 µM, first compound 10 µM
[17] = second compound 0.1 µM, first compound 0.316 µM
[18] = second compound 0.1 µM, first compound 1 µM
[19] = second compound 0.1 µM, first compound 3.16 µM
[20] = second compound 0.1 µM, first compound 10 µM
[21] = second compound 0.316 µM, first compound 0.316 µM
[22] = second compound 0.316 µM, first compound 1 µM
[23] = second compound 0.316 µM, first compound 3.16 µM
[24] = second compound 0.316 µM, first compound 10 µM
[25] = second compound 1 µM, first compound 0.316 µM
[26] = second compound 1 µM, first compound 1 µM
[27] = second compound 1 µM, first compound 3.16 µM
[28] = second compound 1 µM, first compound 10 µM
[29] = second compound 3.16 µM, first compound 0.316 µM
[30] = second compound 3.16 µM, first compound 1 µM
[31] = second compound 3.16 µM, first compound 3.16 µM
[32] = second compound 3.16 µM, first compound 10 µM
[33] = second compound 10 µM, first compound 0.316 µM
[34] = second compound 10 µM, first compound 1 µM
[35] = second compound 10 µM, first compound 3.16 µM
[36] = second compound 10 µM, first compound 10 µM
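Also: spheroids exposed to agents for seven days before readout.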
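For viability, T/C in this document: percent viability relative to DMSO vehicle control taken as 100%.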

CC(=O)c1c(C)c2cnc(Nc3ccc(N4CCNCC4)cn3)nc2n(C2CCCC2)c1=O + CC(Nc1ncnc2nc[nH]c12)c1cc2cccc(Cl)c2c(=O)n1-c1ccccc1
> 0.1 µM: IC50 (second compound 0.0316 µM) | IC50 (second compound 0.1 µM) | IC50 (second compound 0.316 µM) | IC50 (second compound 1 µM) | IC50 (second compound 3.16 µM) | IC50 (second compound 10 µM)
inactive: viability, T/C (second compound 0.0316 µM, first compound 0.000316 µM) 99% | viability, T/C (second compound 0.0316 µM, first compound 0.001 µM) 83.9% | viability, T/C (second compound 0.0316 µM, first compound 0.00316 µM) 93.1% | viability, T/C (second compound 0.0316 µM, first compound 0.01 µM) 99.5% | viability, T/C [1] 101% | viability, T/C [2] 89% | viability, T/C (second compound 0.1 µM, first compound 0.000316 µM) 92.7% | viability, T/C (second compound 0.1 µM, first compound 0.001 µM) 99.2% | viability, T/C (second compound 0.1 µM, first compound 0.00316 µM) 93.9% | viability, T/C (second compound 0.1 µM, first compound 0.01 µM) 115% | viability, T/C [3] 101% | viability, T/C [4] 82.6% | viability, T/C (second compound 0.316 µM, first compound 0.000316 µM) 102% | viability, T/C (second compound 0.316 µM, first compound 0.001 µM) 91.2% | viability, T/C (second compound 0.316 µM, first compound 0.00316 µM) 93% | viability, T/C (second compound 0.316 µM, first compound 0.01 µM) 92.2% | viability, T/C [5] 86% | viability, T/C [6] 77.2% | viability, T/C (second compound 1 µM, first compound 0.000316 µM) 100% | viability, T/C (second compound 1 µM, first compound 0.001 µM) 86.9% | viability, T/C (second compound 1 µM, first compound 0.00316 µM) 78.1% | viability, T/C (second compound 1 µM, first compound 0.01 µM) 71.5% | viability, T/C [7] 76.1% | viability, T/C [8] 81.8% | viability, T/C (second compound 3.16 µM, first compound 0.000316 µM) 106% | viability, T/C (second compound 3.16 µM, first compound 0.001 µM) 105% | viability, T/C (second compound 3.16 µM, first compound 0.00316 µM) 94.2% | viability, T/C (second compound 3.16 µM, first compound 0.01 µM) 83.8% | viability, T/C [9] 77.2% | viability, T/C [10] 53.4% | viability, T/C (second compound 10 µM, first compound 0.000316 µM) 86.3% | viability, T/C (second compound 10 µM, first compound 0.001 µM) 103% | viability, T/C (second compound 10 µM, first compound 0.00316 µM) 92.9% | viability, T/C (second compound 10 µM, first compound 0.01 µM) 86.2% | viability, T/C [11] 82.4% | viability, T/C [12] 68.7%

CCCS(=O)(=O)Nc1ccc(F)c(C(=O)c2c[nH]c3ncc(-c4ccc(Cl)cc4)cc23)c1F + CC(Nc1ncnc2nc[nH]c12)c1cc2cccc(Cl)c2c(=O)n1-c1ccccc1
4.58 µM: IC50 (second compound 3.16 µM)
5.49 µM: IC50 (second compound 0.316 µM)
4.4 µM: IC50 (second compound 10 µM)
4.61 µM: IC50 (second compound 1 µM)
5.13 µM: IC50 (second compound 0.1 µM)
inactive: viability, T/C [1] 80.7% | viability, T/C [2] 77.9% | viability, T/C [13] 97.8% | viability, T/C [14] 98.2% | viability, T/C [15] 80% | viability, T/C [3] 97.1% | viability, T/C [4] 100% | viability, T/C [17] 90.6% | viability, T/C [18] 97.6% | viability, T/C [19] 82% | viability, T/C [5] 81.3% | viability, T/C [6] 103% | viability, T/C [21] 93.6% | viability, T/C [22] 94.6% | viability, T/C [23] 93.2% | viability, T/C [7] 90.3% | viability, T/C [8] 99.7% | viability, T/C [25] 99.7% | viability, T/C [26] 96.5% | viability, T/C [27] 71.8% | viability, T/C [9] 94.7% | viability, T/C [10] 99.2% | viability, T/C [29] 90.6% | viability, T/C [30] 85.7% | viability, T/C [31] 74.3% | viability, T/C [11] 78.5% | viability, T/C [12] 92.2% | viability, T/C [33] 92.1% | viability, T/C [34] 74.8% | viability, T/C [35] 70.6%
active: viability, T/C [16] 3.53% | viability, T/C [20] 5.89% | viability, T/C [24] 3.19% | viability, T/C [28] 5.59% | viability, T/C [32] 2.26% | viability, T/C [36] 3.63%
4.97 µM: IC50 (second compound 0.0316 µM)

CNC(=O)c1ccc(N2C(=S)N(c3ccc(C#N)c(C(F)(F)F)c3)C(=O)C2(C)C)cc1F + CC(Nc1ncnc2nc[nH]c12)c1cc2cccc(Cl)c2c(=O)n1-c1ccccc1
> 10 µM: IC50 (second compound 0.0316 µM) | IC50 (second compound 0.1 µM) | IC50 (second compound 0.316 µM) | IC50 (second compound 1 µM) | IC50 (second compound 3.16 µM) | IC50 (second compound 10 µM)
inactive: viability, T/C [1] 106% | viability, T/C [2] 92.8% | viability, T/C [13] 88.1% | viability, T/C [14] 94.5% | viability, T/C [15] 79.7% | viability, T/C [16] 63.6% | viability, T/C [3] 101% | viability, T/C [4] 81% | viability, T/C [17] 96.5% | viability, T/C [18] 76.3% | viability, T/C [19] 80.8% | viability, T/C [20] 83.9% | viability, T/C [5] 102% | viability, T/C [6] 90.1% | viability, T/C [21] 92.6% | viability, T/C [22] 80.5% | viability, T/C [23] 71.7% | viability, T/C [24] 52.6% | viability, T/C [7] 81.5% | viability, T/C [8] 95.7% | viability, T/C [25] 96.5% | viability, T/C [26] 77.4% | viability, T/C [27] 78.2% | viability, T/C [28] 68.3% | viability, T/C [9] 107% | viability, T/C [10] 76.6% | viability, T/C [29] 104% | viability, T/C [30] 87.6% | viability, T/C [31] 80.8% | viability, T/C [32] 68.4% | viability, T/C [11] 85.7% | viability, T/C [12] 97.3% | viability, T/C [33] 93.3% | viability, T/C [34] 95.6% | viability, T/C [35] 60.9% | viability, T/C [36] 58.3%
